Test results published in US10231453B2, “5-substituted imidazole derivatives” (BAYER CROPSCIENCE AKTIENGESELLSCHAFT, priority 2015, dated 2019).
Where two headings read alike, the source gives them in different places.

What was measured:
Alternaria brassicae = experiment: In vivo preventive test on Alternaria brassicae (leaf spot on radish), Examples A and R1; conditions: for pest or weed control at 500 ppm / pest or weed control at 100 ppm: Alternaria brassicae, 144 h
[1] = Measurement of LogP values by HPLC on reversed phase columns (EEC directive 79/831 Annex V.A8); assay type: physicochemical; conditions: method [a]: LC-UV, acidic range, 0.1% formic acid in water and acetonitrile as eluent; Table 1
Protocol: Measurement of Log P values was performed as outlined above.

Sphaerotheca fuliginea = experiment: In vivo preventive test on Sphaerotheca fuliginea (powdery mildew on cucurbits), Examples F and R6; conditions: Podosphaera fuliginea, 360 h, preventive spray, evaluated 15 days after inoculation
Puccinia recondita = experiment: In vivo preventive test on Puccinia recondita (brown rust on wheat), Examples C and R3; conditions: Puccinia recondita, 264 h, preventive spray, evaluated 11 days after inoculation
Uromyces appendiculatus = experiment: In vivo preventive test on Uromyces appendiculatus (bean rust), Examples G and R7; conditions: 264 h, preventive spray, evaluated 11 days after inoculation
Septoria tritici = experiment: In vivo preventive test on Septoria tritici (leaf spot on wheat), Examples E, Q3 and R5; conditions: Zymoseptoria tritici, 576 h, preventive spray, evaluated 24 days after inoculation
Pyrenophora teres = experiment: In vivo preventive test on Pyrenophora teres (net blotch on barley), Examples D, Q2 and R4; conditions: Pyrenophora teres, 336 h, 500 ppm of active ingredient, preventive spray, evaluated 14 days after inoculation, read-out: efficacy
Botrytis cinerea = experiment: In vivo preventive test on Botrytis cinerea (grey mould) on gherkin, Examples B, Q1 and R2; conditions: Botrytis cinerea, 500 ppm of active ingredient, preventive spray, evaluated 4 to 5 days after inoculation, read-out: efficacy
[2] = system: Blumeria graminis fsp. hordei; experiment: In vivo preventive Blumeria test (barley), Example K; conditions: 168 h, 500 ppm of active ingredient, preventive spray, evaluated 7 days after inoculation, read-out: efficacy
Excerpt: After the spray coating has been dried, the plants are dusted with spores of Blumeria graminis fsp. hordei.

[3] = 500 ppm of active ingredient, gherkin, read-out: efficacy
[4] = 500 ppm of active ingredient, wheat, read-out: efficacy
[5] = 500 ppm of active ingredient, bean, read-out: efficacy
[6] = 500 ppm of active ingredient, preventive spray, evaluated 6 days after inoculation, read-out: efficacy
[7] = Example R1, rate of application 100 ppm, read-out: Efficacy in %
[8] = Example R1, rate of application 500 ppm, read-out: Efficacy in %

| SMILES | chromatographic logP [1] | pest or weed control at 500 ppm (Sphaerotheca fuliginea; [3]) [%] | pest or weed control at 500 ppm (Puccinia recondita; [4]) [%] | pest or weed control at 500 ppm (Uromyces appendiculatus; [5]) [%] | pest or weed control at 500 ppm (Septoria tritici; [4]) [%] | pest or weed control at 500 ppm (Alternaria brassicae; [6]) [%] | pest or weed control at 500 ppm (Pyrenophora teres) [%] | pest or weed control at 500 ppm (Botrytis cinerea) [%] | also measured |
| --- | --- | --- | --- | --- | --- | --- | --- | --- | --- |
| OC(Cc1ccc(Cl)cc1F)(Cn1ccc(Cl)c1)C1(Cl)CC1 (racemic) [reference compound] |  |  |  |  |  |  |  |  | Efficacy in % (Alternaria brassicae; Example R1, rate of application 100 ppm): 0%; Efficacy in % (Alternaria brassicae; Example R1, rate of application 500 ppm): 0% |
| Cc1cncn1CC(O)(Cc1ccccc1Cl)C1(Cl)CC1 (stereo not drawn) [Example I-03] | 1.72 | 90 to 100 | 80 to 89 | 90 to 100 | 90 to 100 | 80 to 89 |  |  | pest or weed control at 100 ppm (Sphaerotheca fuliginea; Example R6, gherkin, 100 ppm, read-out: Efficacy in %): 85%; pest or weed control at 500 ppm (Sphaerotheca fuliginea; Example R6, gherkin, 500 ppm, read-out: Efficacy in %): 100%; pest or weed control at 100 ppm (Puccinia recondita; Example R3, wheat, 100 ppm, read-out: Efficacy in %): 86%; pest or weed control at 500 ppm (Puccinia recondita; Example R3, wheat, 500 ppm, read-out: Efficacy in %): 86%; pest or weed control at 100 ppm (Uromyces appendiculatus; Example R7, bean, 100 ppm, read-out: Efficacy in %): 81%; pest or weed control at 500 ppm (Uromyces appendiculatus; Example R7, bean, 500 ppm, read-out: Efficacy in %): 100%; pest or weed control at 100 ppm (Septoria tritici; Example R5, wheat, 100 ppm, read-out: Efficacy in %): 83%; pest or weed control at 500 ppm (Septoria tritici; Example R5, wheat, 500 ppm, read-out: Efficacy in %): 100%; pest or weed control at 100 ppm (Alternaria brassicae; [7]): 0%; pest or weed control at 500 ppm (Alternaria brassicae; [8]): 83% |
| Cc1cncn1CC(O)(C(F)c1ccccc1Cl)C1(Cl)CC1 (stereo not drawn) [Example I-13] | 1.75 | 90 to 100 | 80 to 89 |  | 90 to 100 | 70 to 79 | 80 to 89 | 80 to 89 |  |
| OC(Cc1ccccc1Cl)(Cn1cncc1C(F)(F)F)C1(Cl)CC1 (stereo not drawn) [Example I-15] | 3.63 | 90 to 100 | 80 to 89 | 90 to 100 | 90 to 100 | 90 to 100 | 90 to 100 | 70 to 79 |  |
| CC(=O)c1cncn1CC(O)(Cc1ccccc1Cl)C1(Cl)CC1 (stereo not drawn) [Example I-19] |  | 90 to 100 | 90 to 100 |  | 90 to 100 | 80 to 89 | 80 to 89 |  |  |
| OC(Cc1ccccc1Cl)(Cn1cncc1-c1cccs1)C1(Cl)CC1 (stereo not drawn) [Example I-20] |  | 90 to 100 | 80 to 89 | 90 to 100 | 80 to 89 | 80 to 89 |  |  |  |
| Cc1ccccc1CC(O)(Cn1cncc1C#N)C1(Cl)CC1 (stereo not drawn) [Example I-54] |  | 90 to 100 | 80 to 89 | 90 to 100 | 90 to 100 | 80 to 89 | 80 to 89 | 90 to 100 |  |
| COc1ccccc1CC(O)(Cn1cncc1C#N)C1(Cl)CC1 (stereo not drawn) [Example I-55] | 2.93 | 90 to 100 | 90 to 100 | 90 to 100 | 90 to 100 | 80 to 89 | 80 to 89 | 90 to 100 |  |
| N#Cc1cncn1CC(O)(Cc1ccnc(Cl)c1)C1(Cl)CC1 (stereo not drawn) [Example I-62] | 2.04 | 90 to 100 | 90 to 100 | 90 to 100 | 90 to 100 |  | 90 to 100 |  | pest or weed control at 500 ppm [2]: 90 to 100% |
| OC(Cc1cccc(Cl)c1Cl)(Cn1cncc1Cl)C1(Cl)CC1 (stereo not drawn) [Example I-66] | 2.69 | 90 to 100 | 90 to 100 | 90 to 100 | 90 to 100 | 70 to 79 | 90 to 100 | 70 to 79 |  |
| OC(Cc1ccnc(Cl)c1)(Cn1cncc1Cl)C1(Cl)CC1 (stereo not drawn) [Example I-75] | 1.62 | 90 to 100 | 70 to 79 | 90 to 100 | 90 to 100 |  | 80 to 89 | 80 to 89 | pest or weed control at 500 ppm [2]: 90 to 100% |
| N#Cc1cncn1CC(O)(Cc1ccccc1Cl)C1CC1 (stereo not drawn) [Example I-80] | 2.57 | 90 to 100 | 80 to 89 | 90 to 100 | 90 to 100 |  | 80 to 89 |  | pest or weed control at 500 ppm [2]: 90 to 100% |
| CC(C)C(O)(Cc1ccccc1Cl)Cn1cncc1C#N (stereo not drawn) [Example I-82] | 2.67 | 90 to 100 | 90 to 100 | 90 to 100 | 90 to 100 |  | 80 to 89 | 90 to 100 |  |
| OC(Cc1ccc(F)c(F)c1)(Cn1cncc1Cl)C1(Cl)CC1 (stereo not drawn) [Example I-110] | 2.23 | 90 to 100 | 80 to 89 | 90 to 100 | 80 to 89 |  | 90 to 100 | 90 to 100 |  |
| CC(C)C(O)(Cc1ccc(Cl)cc1F)Cn1cncc1C#N (stereo not drawn) [Example I-118] | 2.91 | 90 to 100 | 90 to 100 | 90 to 100 | 70 to 79 |  | 70 to 79 | 90 to 100 |  |
| CC1(C(O)(Cc2ccc(F)cc2F)Cn2cncc2C#N)CC1 (stereo not drawn) [Example I-124] | 2.65 | 90 to 100 | 90 to 100 | 90 to 100 | 90 to 100 |  | 90 to 100 | 90 to 100 |  |
| N#Cc1cncn1CC(O)(Cc1ccc(F)cc1F)CC1CC1 (stereo not drawn) [Example I-130] | 2.69 | 90 to 100 | 90 to 100 | 90 to 100 | 90 to 100 |  | 70 to 79 | 90 to 100 |  |
| CC1(C(O)(Cc2ccccc2F)Cn2cncc2C#N)CC1 (stereo not drawn) [Example I-131] | 2.68 | 90 to 100 | 90 to 100 | 90 to 100 | 90 to 100 |  | 80 to 89 | 70 to 79 |  |
| N#Cc1cncn1CC(O)(Cc1ccccc1F)C1CC1 (stereo not drawn) [Example I-136] |  | 90 to 100 | 90 to 100 | 90 to 100 | 90 to 100 |  |  |  | pest or weed control at 500 ppm [2]: 90 to 100% |
| CC(C)C(O)(Cc1ccccc1F)Cn1cncc1C#N (stereo not drawn) [Example I-139] | 2.4 | 90 to 100 | 90 to 100 | 90 to 100 | 90 to 100 |  | 70 to 79 | 90 to 100 |  |
| Cc1cccc(CC(O)(Cn2cncc2C#N)C2(Cl)CC2)c1F (stereo not drawn) [Example I-142] | 2.99 | 90 to 100 | 80 to 89 | 90 to 100 | 70 to 79 |  | 80 to 89 | 80 to 89 |  |
| OC(Cc1ccccc1Cl)(Cn1cnc(Br)c1)C1(Cl)CC1 (stereo not drawn) [drawing 59, reference compound] |  |  |  |  |  |  |  |  | pest or weed control at 100 ppm (Alternaria brassicae; [7]): 0%; pest or weed control at 500 ppm (Alternaria brassicae; [8]): 40% |
| Cc1cn(CC(O)(Cc2ccccc2Cl)C2(Cl)CC2)cn1 (stereo not drawn) [drawing 61, reference compound] |  |  |  |  |  |  |  |  | pest or weed control at 100 ppm (Alternaria brassicae; [7]): 0%; pest or weed control at 500 ppm (Alternaria brassicae; [8]): 0% |
| OC(Cc1ccccc1F)(Cn1cnc(Cl)c1)C1(Cl)CC1 (stereo not drawn) [drawing 63, reference compound] |  |  |  |  |  |  |  |  | pest or weed control at 100 ppm (Alternaria brassicae; [7]): 0%; pest or weed control at 500 ppm (Alternaria brassicae; [8]): 0% |
| OC(Cc1ccccc1F)(Cn1ccnc1Cl)C1(Cl)CC1 (stereo not drawn) [drawing 64, reference compound] |  |  |  |  |  |  |  |  | pest or weed control at 100 ppm (Alternaria brassicae; [7]): 0%; pest or weed control at 500 ppm (Alternaria brassicae; [8]): 0% |
| N#Cc1cn(CC(O)(Cc2ccccc2F)C2(Cl)CC2)cn1 (stereo not drawn) [drawing 68, reference compound] |  |  |  |  |  |  |  |  | pest or weed control at 100 ppm (Alternaria brassicae; [7]): 0%; pest or weed control at 500 ppm (Alternaria brassicae; [8]): 0% |
